# Data taken from ChEMBL document CHEMBL5608246, “Membrane-Targeting Amphiphilic Honokiol Derivatives Containing an Oxazole Moiety as Potential Antibacterials against Methicillin-Resistant Staphylococcus aureus” (J Med Chem, 2024).
# Legend:
# Staphylococcus aureus [1] = assay: Antibacterial activity against Staphylococcus aureus ATCC 29213 incubated for 16 to 18 hrs by broth dilution method; assay type: functional; details: time 16-18 hrs
# Staphylococcus aureus [2] = assay: Antibacterial activity against methicillin resistant Staphylococcus aureus N315 incubated for 16 to 18 hrs by broth dilution method; assay type: functional; details: time 16-18 hrs
# Staphylococcus aureus [3] = assay: Antibacterial activity against methicillin resistant Staphylococcus aureus M11 incubated for 16 to 18 hrs by broth dilution method; assay type: functional; details: time 16-18 hrs
# Staphylococcus aureus [4] = assay: Antibacterial activity against methicillin resistant Staphylococcus aureus M12 incubated for 16 to 18 hrs by broth dilution method; assay type: functional; details: time 16-18 hrs
# Staphylococcus aureus [5] = assay: Antibacterial activity against methicillin resistant Staphylococcus aureus M13 incubated for 16 to 18 hrs by broth dilution method; assay type: functional; details: time 16-18 hrs
# Staphylococcus aureus [6] = assay: Antibacterial activity against methicillin resistant Staphylococcus aureus M14 incubated for 16 to 18 hrs by broth dilution method; assay type: functional; details: time 16-18 hrs
# Staphylococcus aureus [7] = assay: Antibacterial activity against methicillin resistant Staphylococcus aureus M16 incubated for 16 to 18 hrs by broth dilution method; assay type: functional; details: time 16-18 hrs
# Staphylococcus aureus [8] = assay: Antibacterial activity against methicillin resistant Staphylococcus aureus M17 incubated for 16 to 18 hrs by broth dilution method; assay type: functional; details: time 16-18 hrs
# Staphylococcus aureus [9] = assay: Antibacterial activity against methicillin resistant Staphylococcus aureus M20 incubated for 16 to 18 hrs by broth dilution method; assay type: functional; details: time 16-18 hrs
# Staphylococcus aureus [10] = assay: Antibacterial activity against methicillin resistant Staphylococcus aureus M21 incubated for 16 to 18 hrs by broth dilution method; assay type: functional; details: time 16-18 hrs
# Staphylococcus aureus [11] = assay: Antibacterial activity against methicillin resistant Staphylococcus aureus M22 incubated for 16 to 18 hrs by broth dilution method; assay type: functional; details: time 16-18 hrs
# Staphylococcus aureus [12] = assay: Antibacterial activity against methicillin resistant Staphylococcus aureus M23 incubated for 16 to 18 hrs by broth dilution method; assay type: functional; details: time 16-18 hrs
# Escherichia coli = assay: Antibacterial activity against Escherichia coli ATCC 25922 incubated for 16 to 18 hrs by broth dilution method; assay type: functional; details: time 16-18 hrs
# [13] = Hemolytic activity in sheep RBC incubated for 1 hr; assay type: toxicity, cell-based, Ovis aries, Erythrocyte; details: sheep red blood cells (erythrocytes)
# [14] = Selectivity index, ratio of HC50 for sheep RBC to MIC for Staphylococcus aureus ATCC 29213; assay type: toxicity; details: sheep red blood cells, read-out: Selectivity Index
Structure (SMILES),MIC (Staphylococcus aureus [1]) [µg/mL],MIC (Staphylococcus aureus [2]) [µg/mL],MIC (Staphylococcus aureus [3]) [µg/mL],MIC (Staphylococcus aureus [4]) [µg/mL],MIC (Staphylococcus aureus [5]) [µg/mL],MIC (Staphylococcus aureus [6]) [µg/mL],MIC (Staphylococcus aureus [7]) [µg/mL],MIC (Staphylococcus aureus [8]) [µg/mL],MIC (Staphylococcus aureus [9]) [µg/mL],MIC (Staphylococcus aureus [10]) [µg/mL],MIC (Staphylococcus aureus [11]) [µg/mL],MIC (Staphylococcus aureus [12]) [µg/mL],MIC (Escherichia coli) [µg/mL],HC50 at 1 h [13] [µg/mL],selectivity ratio [14]
C=CCc1cc(-c2ccc(OCCC[N+](C)(C)CC(=O)NCCCC)c(CC=C)c2)c2oc(-c3ccc(Cl)c(F)c3)nc2c1.[Br-],64,8,8,16,8,4,8,16,8,8,8,8,128,81,1.3
C=CCc1cc(-c2ccc(OCCC[N+](C)(C)CC(=O)NCCCC)c(CC=C)c2)c2oc(-c3cc(F)c(F)c(F)c3)nc2c1.[Br-],> 128,64,32,128,32,32,32,64,64,32,64,32,> 128,64.4,< 0.5
C=CCc1cc(-c2ccc(OCCC[N+](C)(C)CC(=O)NCCCC)c(CC=C)c2)c2oc(-c3cc(Br)ccc3F)nc2c1.[Br-],64,32,8,8,4,4,8,4,4,4,8,8,128,> 320,> 5
C=CCc1cc(-c2ccc(OCCC[N+](C)(C)CC(=O)NCCCC)c(CC=C)c2)c2oc(-c3ccc(OC)cc3)nc2c1.[Br-],8,4,2,4,4,2,2,4,2,2,2,2,> 128,320,> 40
C=CCc1cc(-c2ccc(OCCC[N+](C)(C)CC(=O)NCCCC)c(CC=C)c2)c2oc(-c3ccc(Cl)c(Br)c3)nc2c1.[Br-],128,128,> 128,128,32,64,64,128,128,128,128,128,> 128,> 320,> 2.5
C=CCc1cc(-c2ccc(OCCC[N+](C)(C)CC(=O)NCCCC)c(CC=C)c2)c2oc(-c3ccc(F)cc3)nc2c1.[Br-],32,16,16,16,8,8,8,8,8,8,8,8,> 128,> 320,> 10
C=CCc1cc(-c2ccc(OCCC[N+](C)(C)CC(=O)NCCCC)c(CC=C)c2)c2oc(-c3ccccc3Br)nc2c1.[Br-],4,8,4,4,2,4,2,4,4,4,4,4,128,> 320,> 80
C=CCc1cc(-c2ccc(OCCC[N+](C)(C)CC(=O)NCCCC)c(CC=C)c2)c2oc(-c3cc(Cl)cc(Cl)c3)nc2c1.[Br-],128,128,> 128,128,32,64,64,32,128,32,128,128,> 128,81.3,0.6
C=CCc1cc(-c2ccc(OCCC[N+](C)(C)CC(=O)NCCCC)c(CC=C)c2)c2oc(-c3ccc(Br)cc3)nc2c1.[Br-],64,64,8,16,8,8,8,16,8,8,16,8,128,> 320,> 5
C=CCc1cc(-c2ccc(OCCC[N+](C)(C)CC(=O)NCCCC)c(CC=C)c2)c2oc(-c3ccc(F)cc3Cl)nc2c1.[Br-],8,8,4,4,4,4,4,4,4,4,4,4,> 128,219,27.3
C=CCc1cc(-c2ccc(OCCC[N+](C)(C)CC(=O)NCCCC)c(CC=C)c2)c2oc(-c3ccc(F)c(Cl)c3)nc2c1.[Br-],64,16,8,8,8,4,8,32,8,8,16,8,> 128,> 320,> 5
C=CCc1cc(-c2ccc(OCCC[N+](C)(C)CC(=O)NCCCC)c(CC=C)c2)c2oc(-c3ccc(F)c(F)c3)nc2c1.[Br-],8,32,8,8,4,4,4,4,4,4,16,4,> 128,222,27.7
C=CCc1cc(-c2ccc(OCCC[N+](C)(C)CC(=O)NCCCC)c(CC=C)c2)c2oc(-c3ccc(Cl)cc3)nc2c1.[Br-],16,8,4,4,4,8,4,4,8,4,8,4,> 128,> 640,> 40
C=CCc1cc(-c2ccc(OCCC[N+](C)(C)CC(=O)NCCCC)c(CC=C)c2)c2oc(-c3cccc(Cl)c3Cl)nc2c1.[Br-],32,8,16,8,16,4,8,4,4,8,8,8,128,39.5,1.2
